From ChEMBL document CHEMBL4390668, “Discovery and Structural Optimization of Acridones as Broad-Spectrum Antimalarials” (J Med Chem, 2019) come the findings set out here.

Data set [1] deals with HepG2. Kind of data set: Cytotoxicity against human HepG2 cells measured after 24 to 36 hrs by resazurin dye based fluorescence assay. The data set is classed as cell-based. On the technique in general: The colour change of resazurin is a common sign of viable cells or microbes.
The subject of data set [2] is Plasmodium falciparum. Kind of data set: Antimalarial activity against chloroquine-sensitive Plasmodium falciparum D6 infected in human erythrocytes by SYBR green 1-based fluorescence assay. It is filed as functional, organism-based.
Data set [3] relates to Plasmodium falciparum. Kind of data set: Antimalarial activity against multidrug-resistant Plasmodium falciparum 7G8 infected in human erythrocytes by SYBR green 1-based fluorescence assay. It is filed as functional, organism-based.
The test system of data set [4] is Plasmodium falciparum. Kind of data set: Antimalarial activity against multidrug-resistant Plasmodium falciparum Dd2 infected in human erythrocytes by SYBR green 1-based fluorescence assay. It is filed as functional, organism-based.
The nature of data set [5]: Selectivity index, ratio of IC50 for human HepG2 cells to IC50 for chloroquine-sensitive Plasmodium falciparum D6 infected in human erythrocytes. The data set is classed as toxicity, cell-based. The conditions noted are these: read-out: Ratio IC50.
Data set [6] relates to Plasmodium falciparum. Kind of data set: Antimalarial activity against atovaquone-resistant Plasmodium falciparum Tm90-C2B infected in human erythrocytes by SYBR green 1-based fluorescence assay. It is filed as functional, organism-based.

Molecules are shown by their SMILES. pIC50: −log10 of the molar value.

Turning to `CCCN(CCC)CCOc1ccc2c(=O)c3ccc(C(F)(F)F)cc3[nH]c2c1`, the pIC50 (in general, the IC50 on a negative log10 scale, so that one unit is a factor of ten) in data set [1] was less than 4.00; in data set [2], 7.59; in data set [3], 8.25; in data set [4], 9.36; in data set [6], 5.81. Moreover, the selectivity ratio in data set [5] was more than 3850.
As to `CCN(CC)CCOc1ccc2c(=O)c3ccc(Cl)cc3n(CCN(CC)CC)c2c1`, the pIC50 in data set [1] is less than 4.40; in data set [2], 7.31; in data set [3], 7.07; in data set [4] it was 7.11; in data set [6], 7.15. Besides, the selectivity ratio in data set [5] is more than 816.
For `CC(C)(C)NCCCOc1ccc2c(=O)c3c(F)cc(F)cc3[nH]c2c1`, the pIC50 is 4.38 in data set [1]; 6.94 in data set [2]; 6.20 in data set [3]; 8.05 in data set [4]; 5.60 in data set [6]. For the same compound, in data set [5], the selectivity ratio was 361.
For `CCN(CC)CCOc1ccc2c(=O)c3cc(F)c(OCCN(CC)CC)cc3[nH]c2c1`, the negative-log IC50 (pIC50) in data set [1] is less than 3.70; in data set [2], 6.94; in data set [3], 6.11; in data set [4] it was 6.68; in data set [6], 6.41. For the same compound, the selectivity ratio in data set [5] was more than 12500.
For the compound `CCCN(CCC)CCOc1ccc2[nH]c3cc(Cl)c(Cl)cc3c(=O)c2c1`, the pIC50 is less than 4.00 in data set [1]; 7.59 in data set [2]; 7.85 in data set [3]; 7.77 in data set [4]; 7.24 in data set [6]. Further, the selectivity ratio in data set [5] is more than 3850.
Consider `CCN(CC)CCNc1ccc2c(=O)c3cc(F)c(OC)cc3[nH]c2c1`, for which the pIC50 was 3.90 in data set [1]; 6.28 in data set [2]; 5.89 in data set [3]; 5.93 in data set [4]; 5.82 in data set [6]. In addition, the selectivity ratio in data set [5] turned out to be 239.
Take `CC(C)(C)NCCCOc1ccc2c(=O)c3cc(Cl)c(Cl)cc3[nH]c2c1`: the pIC50 in data set [1] is 5.21; in data set [2], 6.91; in data set [3] it was 6.38; in data set [4] it was 6.23; in data set [6], 6.26. Moreover, the selectivity ratio in data set [5] turned out to be 49.
Consider `CCCN(CCC)CCOc1ccc2[nH]c3cc(F)cc(OC)c3c(=O)c2c1`, for which the negative logarithm of the IC50 (pIC50) is 4.25 in data set [1]; 7.46 in data set [2]; 6.76 in data set [3]; 6.98 in data set [4]; less than 6.60 in data set [6]. Besides, the selectivity ratio in data set [5] was determined as 1590.
With `O=c1c2ccc(OCCN3CCOCC3)cc2[nH]c2ccc(Cl)c(Cl)c12`, the pIC50 in data set [1] was less than 4.00; in data set [2] it was 7.19; in data set [3] it was 6.56; in data set [4] it was 7.42; in data set [6], 6.71. Also, the selectivity ratio in data set [5] was more than 1540.
Consider `CCN(CC)CCOc1ccc2[nH]c3ccc(Cl)cc3c(=O)c2c1`, for which the pIC50 is less than 4.00 in data set [1]; 6.80 in data set [2]; 6.28 in data set [3]; 6.40 in data set [4]; 6.53 in data set [6]. Also, in data set [5], the selectivity ratio was more than 629.
As for `CCCN(CCC)CCOc1ccc2[nH]c3cc(OC)cc(Cl)c3c(=O)c2c1`, the pIC50 in data set [1] is less than 4.00; in data set [2] it was 7.10; in data set [3] it was 6.54; in data set [4] it was 7.04; in data set [6], 6.25. Also, the selectivity ratio in data set [5] is more than 1270.
For `CCCCNCCCOc1ccc2c(=O)c3c(Cl)c(Cl)ccc3[nH]c2c1`, the pIC50 in data set [1] is 4.64; in data set [2], 7.34; in data set [3] it was 6.97; in data set [4], 7.43; in data set [6], 7.17. Besides, the selectivity ratio in data set [5] stood at 492.
Regarding `O=c1c2ccc(OCCCCl)cc2[nH]c2cc(F)cc(F)c12`, the pIC50 in data set [1] was less than 4.00; in data set [2] it was 8.85; in data set [3], 8.72; in data set [4] it was 9.52; in data set [6] it was 7.05. Also, the selectivity ratio in data set [5] was more than 71400.
In the case of `CCCN(CCC)CCOc1ccc2[nH]c3cc(Cl)cc(OC)c3c(=O)c2c1`, the pIC50 in data set [1] is 4.43; in data set [2] it was 7.52; in data set [3] it was 7.49; in data set [4], 7.96; in data set [6], 7.02. In addition, the selectivity ratio in data set [5] was found to be 1220.
Consider `CCCCNCCCOc1ccc2c(=O)c3cc(Cl)c(Cl)cc3[nH]c2c1`, for which the negative logarithm of the IC50 (pIC50) was 4.12 in data set [1]; 7.44 in data set [2]; 6.79 in data set [3]; 6.84 in data set [4]; 6.75 in data set [6]. Besides, the selectivity ratio in data set [5] amounted to 2490.
In the case of `CCN(CC)CCOc1ccc2c(=O)c3cc(Cl)c(Cl)cc3[nH]c2c1`, the pIC50 in data set [1] was less than 4.00; in data set [2], 7.36; in data set [3] it was 7.14; in data set [4], 6.88; in data set [6] it was 6.29. The selectivity ratio in data set [5] was more than 2270.
On to `CN(C)CCOc1ccc2c(=O)c3c(Cl)c(Cl)ccc3[nH]c2c1`, for which the pIC50 in data set [1] is less than 4.00; in data set [2], 6.41; in data set [3], 5.90; in data set [4], 5.70; in data set [6], less than 5.60. Moreover, the selectivity ratio in data set [5] is more than 254.
